Data as given in patent US7419965B2, “Nucleotide lipid ester derivatives” (Heidelberg Pharma AG, priority 2003, dated 2008).

Legend:
Parameters in all cases: species or system nude mice
[1] = test system: human prostate carcinoma xenograft PC-3; assay: Antitumor activity in human prostate carcinoma xenograft model (PC-3) in vivo; conditions: for Tumor inhibition: day 52, vs vehicle control; for Tumor weight (median): ip once daily for 5 days from day 7, day 52
Description: The antitumor activity of nucleoside conjugate and nucleoside has been compared in the human prostate carcinoma xenograft PC-3 model in nude mice.
Tumor bearing mice were randomized on day 7 after PC-3 tumor cell inoculation and were distributed to treatment groups of n=10 animals per group. Treatment was started on day 7. The animals were treated intraperitoneally (ip) once daily for 5 consecutive days with nucleotide conjugate or nucleoside. Dosages included 100 and 50% of the Maximum Tolerable Doses (MTD's). Control animals were treated with the corresponding solvent (vehicle) only. On day 52, the primary tumors were explanted and the tumor weights were determined.
(§1) Tumor bearing mice were distributed to treatment groups of 9-10 animals per group. Treatment Treatment cycle(s)(one or two) were performed consisting of once daily intraperitoneal administrations for 5 consecutive days. Dosages were in the range of 6.25% and 100% of the Maximum Tolerated Doses (MTD's). Control animals were treated with solvent (vehicle) only, The percentage of tumor inhibition refers to the median tumor size of the vehicle treated control group and dose groups at the end of each experiment.

[2] = test system: human breast carcinoma xenograft MDA-MB-231; assay: Antitumor activity in human breast carcinoma xenograft model (MDA-MB-231) in vivo; conditions: for Tumor inhibition: day 49, vs vehicle control; for Tumor volume (median): orally once daily days 21-25 and 28-32, day 49
Description: The antitumor activity of nucleotide conjugate and its corresponding nucleoside has been compared in the human breast carcinoma xenograft MDA-MB-231 model in nude mice.
Tumor bearing mice were randomized on day 21 after MDA-MB-231 tumor cell inoculation and were distributed to treatment groups of 9 animals per group. Treatment was started on day 21. At this time point the animals had well vascularized tumors of about 400 mg. The animals were treated orally once daily for 2 weeks with nucleotide conjugate and its corresponding nucleoside on days 21-25 and 28-32. Doses ranged from 6.25% to 50% of the Maximum Tolerable Doses (MTD's). Control animals were treated with the solvent (vehicle) only. […]

[3] = test system: human cervix carcinoma xenograft KB-3-1; assay: Antitumor activity in human cervix carcinoma xenograft model (KB-3-1) in vivo; conditions: for Tumor inhibition: day 29, vs vehicle control; for Tumor volume (median): ip once daily days 8-12, day 29
Description: The antitumor activity of nucleotide conjugate and nucleoside has been compared in the human cervix carcinoma xenograft KB-3-1 model in nude mice.
Tumor bearing mice were randomized on day 8 after KB-3-1 tumor cell inoculation and were distributed to treatment groups of 9 animals per group. Treatment was started on day 8. The animals were treated intraperitoneally (ip) once daily for 5 consecutive days (days 8-12) with nucleotide conjugate or nucleoside. Dosages included 100 and 50% of the Maximum Tolerable Doses (MTD's). Control animals were injected with solvent (Vehicle).
as §1

[4] = test system: human colon carcinoma xenograft HCT-15; assay: Antitumor activity in human colon carcinoma xenograft model (HCT-15) in vivo; conditions: for Tumor weight (median): ip once daily for 5 days from day 8, day 28; for Tumor inhibition: ip once daily for 5 days, day 28, vs vehicle control
Description: The antitumor activity of the nucleotide conjugate and its corresponding nucleoside has been compared in the human colon carcinoma xenograft HCT-15 model in nude mice.
Tumor bearing mice were randomized on day 7 after HCT-15 tumor cell inoculation and were distributed to treatment groups of 9 animals per group. Treatment was started on day 8. The animals were treated intraperitoneally (ip) once daily for 5 consecutive days with the nucleotide conjugate or the nucleoside. Dosages included 50 and 25% of the Maximum Tolerable Doses (MTD′s). Control animals were injected with the corresponding solvents (Vehicle 1 or 2). On day 28, the primary tumors were explanted and the tumor weights were determined.
as §1

[5] = test system: human pancreatic carcinoma xenograft AspC1; assay: Antitumor activity in human pancreatic carcinoma xenograft model (AspC1) in vivo; conditions: for Tumor inhibition: day 30, vs vehicle control; for Tumor weight (median): ip once daily day 6-10 and 20-23, day 30
Description: The antitumor activity of nucleotide conjugate and nucleoside has been compared in the human pancreatic carcinoma xenograft AspC1 model in nude mice.
(§2) Tumor bearing mice were randomized on day 6 after AspC1 tumor cell inoculation and were distributed to treatment groups of 10 animals per group. Treatment was started on day 6. The animals were treated intraperitoneally (ip) once daily on day 6-10 and 20-23 with nucleotide conjugate or nucleoside. Dosages included 100 and 50% of the Maximum Tolerable Doses (MTD's). Control animals were treated with solvent (vehicle) only.
as §1

[6] = test system: human ovarian carcinoma xenograft SKOV-3; assay: Antitumor activity in human ovarian carcinoma xenograft model (SKOV-3) in vivo; conditions: for Tumor inhibition: end of treatment period (day 17), vs vehicle control; for Tumor volume (median): ip once daily day 6-10 and 13-17, end of treatment (day 17)
Description: The antitumor activity of nucleotide conjugate and nucleoside has been compared in the human ovarian carcinoma xenograft SKOV-3 model in nude mice.
as §2, with “after SKOV-3” for “after AspC1”, “of 9” for “of 10”, “and 13-17” for “and 20-23”, “Dosages ranged between 6.25” for “Dosages included 100”, “and 100%” for “and 50%”
as §1

[7] = 50% MTD (nucleoside 20, conjugate 50 mg/kg/injection)
[8] = 100% MTD (nucleoside 40, conjugate 100 mg/kg/injection)
[9] = 6.25% MTD (nucleoside 2.5, conjugate 12.5 mg/kg)
[10] = 12.50% MTD (nucleoside 5.0, conjugate 25.0 mg/kg)
[11] = 25.00% MTD (nucleoside 10.0, conjugate 50.0 mg/kg)
[12] = 50.00% MTD (nucleoside 20.0, conjugate 100.0 mg/kg)
[13] = 25% MTD (nucleoside 20, conjugate 63 mg/kg/injection)
[14] = 50% MTD (nucleoside 40, conjugate 125 mg/kg/injection)
[15] = HCT-15, Dose 50.00 % MTD as printed in summary table
[16] = HCT-15, Dose 100.00 % MTD as printed in summary table
[17] = 50% MTD (nucleoside 15.0, conjugate 37.5 mg/kg/injection)
[18] = 100% MTD (nucleoside 30.0, conjugate 75.0 mg/kg/injection)
[19] = 25% MTD (nucleoside 7.5, conjugate 18.8 mg/kg/injection)

Nc1nc(Cl)nc2c1ncn2[C@@H]1O[C@H](CO)[C@@H](O)[C@@H]1F [Nucleoside, 2-Chloro-9-(2′-deoxy-2′-fluoro-β-D arabinofuranosyl)adenine, reference compound]
Tumor inhibition [1, 7]: 40%
Tumor weight (median) [1, 7]: 303 mg
Tumor inhibition [1, 8]: 60%
Tumor weight (median) [1, 8]: 202 mg
Tumor inhibition [2, 9]: 46%
Tumor volume (median) [2, 9]: 1862 mm^3
Tumor inhibition [2, 10]: 84%
Tumor volume (median) [2, 10]: 550 mm^3
Tumor inhibition [2, 11]: 95%
Tumor volume (median) [2, 11]: 172 mm^3
Tumor inhibition [2, 12]: 97%
Tumor volume (median) [2, 12]: 108 mm^3
Tumor inhibition [3, 7]: 68%
Tumor volume (median) [3, 7]: 1059 mm^3
Tumor inhibition [3, 8]: 49%
Tumor volume (median) [3, 8]: 1705 mm^3
Tumor weight (median) [4, 13]: 431 mg
Tumor inhibition [4, 13]: 25%
Tumor weight (median) [4, 14]: 329 mg
Tumor inhibition [4, 14]: 42%
Tumor inhibition (summary table) [4, 15]: 25%
Tumor inhibition (summary table) [4, 16]: 42%
Tumor inhibition [5, 17]: 30%
Tumor weight (median) [5, 17]: 160 mg
Tumor inhibition [5, 18]: 35%
Tumor weight (median) [5, 18]: 150 mg
Tumor inhibition [6, 19]: 37%
Tumor volume (median) [6, 19]: 162 mm^3
Tumor inhibition [6, 17]: 58%
Tumor volume (median) [6, 17]: 108 mm^3
Tumor inhibition [6, 18]: 51%
Tumor volume (median) [6, 18]: 126 mm^3

CCCCCCCCCCCCSCC(COP(=O)(O)OC[C@H]1O[C@@H](n2cnc3c(N)nc(Cl)nc32)[C@@H](F)[C@@H]1O)OCCCCCCCCCC (stereo partly drawn) [Nucleotide conjugate, [2-Chloro-9-(2′-deoxy-2′-fluoro-β-D arabinofuranosyl)adenine]-5′-phosphoric acid-(3-dodecylmercapto-2-decyloxy)propyl ester]
Tumor inhibition [1, 7]: 82%
Tumor weight (median) [1, 7]: 92 mg
Tumor inhibition [1, 8]: 87%
Tumor weight (median) [1, 8]: 64 mg
Antitumor efficacy compared with Nucleoside ([1]; at both doses): significantly higher (p<0.01)
Activity relative to nucleoside (conclusion) ([1]; conclusion of summary, PC-3): Superior activity
Tumor inhibition [2, 9]: 63%
Tumor volume (median) [2, 9]: 1267 mm^3
Tumor inhibition [2, 10]: 94%
Tumor volume (median) [2, 10]: 196 mm^3
Tumor inhibition [2, 11]: 97%
Tumor volume (median) [2, 11]: 108 mm^3
Tumor inhibition [2, 12]: 99%
Tumor volume (median) [2, 12]: 51 mm^3
Antitumor efficacy compared with the corresponding nucleoside ([2]; at all doses): significantly (p <0.05) higher
Activity relative to nucleoside (conclusion) ([2]; conclusion of summary, MDA-MB-231): Superior activity
Tumor inhibition [3, 7]: 74%
Tumor volume (median) [3, 7]: 877 mm^3
Tumor inhibition [3, 8]: 97%
Tumor volume (median) [3, 8]: 104 mm^3
Antitumor efficacy compared with Nucleoside ([3]; at the MTD): significantly higher (p<0.01)
Activity relative to nucleoside (conclusion) ([3]; conclusion of summary, KB-3-1): Superior activity
Tumor weight (median) [4, 13]: 257 mg
Tumor inhibition [4, 13]: 62%
Tumor weight (median) [4, 14]: 16 mg
Tumor inhibition [4, 14]: 98%
Tumor inhibition (summary table) [4, 15]: 62%
Tumor inhibition (summary table) [4, 16]: 98%
Antitumor efficacy compared with the corresponding nucleoside ([4]; at both doses): significantly (p<0.01) higher
Activity relative to nucleoside (conclusion) ([4]; conclusion of summary, human colon carcinoma xenograft): Superior activity
Tumor inhibition [5, 17]: 65%
Tumor weight (median) [5, 17]: 80 mg
Tumor inhibition [5, 18]: 96%
Tumor weight (median) [5, 18]: 10 mg
Antitumor efficacy compared with Nucleoside ([5]; at both doses): significantly higher (p<0.01)
Activity relative to nucleoside (conclusion) ([5]; conclusion of summary, AspC1): Superior activity
Tumor inhibition [6, 19]: 44%
Tumor volume (median) [6, 19]: 144 mm^3
Tumor inhibition [6, 17]: 58%
Tumor volume (median) [6, 17]: 108 mm^3
Tumor inhibition [6, 18]: 75%
Tumor volume (median) [6, 18]: 63 mm^3
Antitumor efficacy compared with the nucleoside ([6]; at MTD): significantly higher (p<0.01)
Activity relative to nucleoside (conclusion) ([6]; conclusion of summary, SKOV-3): Superior activity
